Where “and” joins values, the source holds several entries; their conditions need not be identical. Equal values may be shown once.
Assays:
[1] = biological target: HIS-Keap1 full length / Biotin-Nrf2 (16-mer) (Homo sapiens, UniProt Q14145); experiment: biochemical
[2] = tested on: NQO1 activation in BEAS-2B cells; experiment: BEAS-2B cellular MTT assay of NQO1 activation, 0.3% HSA; format: cell-based
Experimental: (§1) The growth rate of the BEAS-2B cells changed based on the lot of BEGM SingleQuots in the BEGM media. The cell growth rate was determined for each lot of SingleQuots. Ideally, cells were thawed into media with the new lot of SingleQuots and grown for two passages before testing; however, growing an active culture in the new lot of media for two to three passages before testing was also acceptable. Until the cell growth rate was determined, cells were seeded at different densities (cells/cm^2) in multiple tissue culture flasks in order to avoid the cells becoming more than 70% confluent. Cells should not go above 70% confluent as the cells differentiate when they become confluent. After the cells were grown in the new lot of media as described above, the number of cells per well needed to seed in the collagen plates was determined by seeding different numbers of cells per well and incubating for 48 hours. Cell confluency was checked after 48 hours and a cell number that results in just below to just above confluency was chosen for future plate seeding. Cell confluency in the assay plate was 95-100% confluent after 48 hours.
(§2) Cell media consists of BEBM basal media with the BEGM SingleQuots added. SingleQuots vials were thawed in the tissue culture hood, and GA-1000 (Gentamicin-Amphotericin) was not added.
(§3) If complete media was to be used immediately, BEBM basal media was warmed to room temperature in the hood, but not as high as 37° C. When the media was made for future use, SingleQuots were added to cold BEBM. One at a time, the SingleQuots components (except GA-1000) were added to the BEBM media. After removal of each component from the vial, the vial was rinsed with 0.5-1 mL of BEBM (depending on the volume the vial could hold) and added to the bottle of BEBM. Once all components were added, the label that comes with the SingleQuots kit was put on the bottle of media and the date was recorded. The bottle of media was mixed by gentle shaking. The media was not filtered. This media was stored at 4° C., with any leftover media disposed of one month after the date the SingleQuots were added.
(§4) BEAS-2B Cell Splitting Protocol:
(§5) First, Trypsin was warmed to 37° C. in the water bath. The media was then warmed to room temperature by letting it sit in the tissue culture hood, but not as high as 37° C. The media was aspirated from flask(s) and the flask(s) were washed with PBS. From 1 to 1.5 mL of warm trypsin were added to each flask and incubated at 37° C. until cells came off the flask on their own (~8-10 minutes), with no vigorous tapping on the flask to detach the cells.
(§6) Media was added to each flask to a total volume of 8-10 mL per flask and transferred to 15 mL conical tube(s). The cells were spun down at 120 g for 5 minutes, level 5 brake. The cells can be spun down between 100 and 150 g. Next the media was aspirated and the cell pellet was resuspended in fresh media by pipetting up and down and flicking the tube side to side. Any clumps of cells that remained were allowed to settle to the bottom of the tube before the top suspension was transferred into another tube, leaving about 1 mL of media in the original tube. The 1 mL of media and cell clumps were mixed with a single channel p1000 pipette, and any remaining clumps were removed before adding the cells in suspension to the other tube. The suspension was mixed with a pipette, an aliquot was removed, and the cells were counted. The amount of cells/cm^2 desired was calculated and the required volume of cells was added to tissue culture flasks. For example, use of SingleQuots with ~6000 cells/cm^2 was appropriate for a three day incubation and ~3000 cells/cm^2 for a five day incubation. Optimal cell density differed depending on lot of SingleQuots. The flasks were incubated at 37° C. in 5% CO2.
(§7) Day One: Seeding BEAS-2B Cells in Collagen Plates:
(§8) Plate(s) were either seeded with 0.3% or 0% HSA. While the protocol was similar for both conditions any differences are noted herein below. […]

[3] = tested on: NQO1 activation in BEAS-2B cells; experiment: BEAS-2B cellular MTT assay of NQO1 activation, 0% HSA; format: cell-based
Experimental: as §1, §2, §3, §4, §5, §6, §7, §8

[4] = BEAS+ W, read-out: BEAS+ W EC50
[5] = Homo sapiens, BEAS+ W, read-out: BEAS+ W EC50
[6] = Homo sapiens, Serum Free W, read-out: BEAS EC50 (nM) Serum Free W
[7] = Serum Free W, read-out: BEAS EC50 (nM) Serum Free W
[8] = Homo sapiens, BEAS+, read-out: BEAS+ EC50
[9] = Homo sapiens, serum free, read-out: BEAS EC50 (nM) serum free
[10] = serum free, read-out: BEAS EC50 (nM) serum free

Sequence of HIS-Keap1 full length / Biotin-Nrf2 (16-mer) (Q14145 whole entry): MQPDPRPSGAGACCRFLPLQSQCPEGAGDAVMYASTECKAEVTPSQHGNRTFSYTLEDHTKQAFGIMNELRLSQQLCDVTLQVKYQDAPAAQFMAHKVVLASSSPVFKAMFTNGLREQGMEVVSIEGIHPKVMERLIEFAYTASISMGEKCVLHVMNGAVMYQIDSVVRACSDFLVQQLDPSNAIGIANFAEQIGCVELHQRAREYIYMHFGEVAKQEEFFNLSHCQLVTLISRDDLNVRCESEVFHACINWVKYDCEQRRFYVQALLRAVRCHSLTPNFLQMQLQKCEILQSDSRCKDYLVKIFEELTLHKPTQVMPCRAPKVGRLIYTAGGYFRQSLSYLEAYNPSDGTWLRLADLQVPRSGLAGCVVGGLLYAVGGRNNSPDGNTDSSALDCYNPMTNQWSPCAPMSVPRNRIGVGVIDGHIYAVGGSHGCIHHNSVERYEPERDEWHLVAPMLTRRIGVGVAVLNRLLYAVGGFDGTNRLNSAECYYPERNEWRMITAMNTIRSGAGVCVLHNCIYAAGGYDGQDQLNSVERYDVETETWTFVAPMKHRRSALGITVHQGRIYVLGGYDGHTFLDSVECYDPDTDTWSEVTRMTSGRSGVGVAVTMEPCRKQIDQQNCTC

| SMILES | IC50 [1] | EC50 [2, 4] | EC50 [2, 5] [nM] | EC50 [3, 6] [nM] | EC50 [3, 7] | EC50 ([2]; BEAS+, read-out: BEAS+ EC50) [nM] | EC50 [2, 8] [nM] | EC50 [3, 9] [nM] | EC50 [3, 10] [nM] |
| --- | --- | --- | --- | --- | --- | --- | --- | --- | --- |
| Cc1c2ccc3c1nnn3CCCCCc1ccc3c(c1)cc(n3C)C(=O)N1CCc3ccc(cc3C1)[C@@H]2[C@H](C)C(=O)O (racemic) [Compound 113] | 1.1 nM and 0.9 nM | 48.7 nM | 62.7 | 1.6 | 1.8 nM |  |  |  |  |
| Cn1c2cc3cc(cnc31)CCCCCOc1ccc(cn1)C(CC(=O)O)c1ccc3c(c1)CN(CC3)C2=O (racemic) [Compound 158, 2-(33-methyl-2-oxo-15-oxa-1,7,17,33-tetrazahexacyclo[19.5.3.216,19.13,6.15,9.024,28]tritriaconta-3,5,7,9(32),16,18,21(29),22,24(28),30-decaen-20-yl)acetic Acid] | 3.6 nM and 3.2 nM |  |  |  |  | 400 | 403 | 18.2 | 22.1 |
| Cc1c2ccc3c1nnn3CCCCCCc1ccc(cc1)C(=O)N1CCc3ccc(cc3C1)[C@@H]2[C@H](C)C(=O)O (racemic) [Compound 200] | 87.3 nM and 86.3 nM |  |  |  |  | 9.3 | 9.5 | 3.4 | 6.5 |
| C[C@H](C(=O)O)[C@@H]1c2ccc(nc2)OCCCCCc2ccc(cc2)C(=O)N2CCc3ccc1cc3C2 (single isomer, unassigned) [Compound 127] | 3.8 nM and 3.9 nM |  |  |  |  | 0.6 | 0.4 | 0.3 |  |
| Cc1c2ccc3c1nnn3CCCCCCc1ccc3c(c1)cc(n3C)C(=O)N1CCc3ccc(cc3C1)[C@@H]2[C@H](C)C(=O)O [Compound 34] | 1.7 nM and 0.6 nM | 189 nM | 190 | 3.6 | 3.8 nM |  |  |  |  |
| O=C(O)C[C@H]1c2cnc(nc2)OCC/C=C/Cc2c(F)c(F)c(c(F)c2F)C(=O)N2CCc3ccc1cc3C2 [Compound 35] | 840 nM and 662 nM |  | > 10000 | > 1000 |  |  |  |  |  |
| Cc1c2cnc3c1nnn3CCCCCCc1c(F)c(F)c(c(F)c1F)C(=O)N1CCc3ccc(cc3C1)[C@@H]2[C@@H](C)C(=O)O [Compound 36] | 12.7 nM and 2.5 nM | 95.4 nM | 184 | 35 | 36.7 nM |  |  |  |  |
| Cc1c2ccc3c1nnn3CCCCCCc1ccc(cc1OC(F)F)C(=O)N1CCc3ccc(cc3C1)[C@@H]2CC(=O)O [Compound 37] | 1 nM and 0.8 nM | 72.3 nM | 100 | 18.1 | 18.2 nM |  |  |  |  |
| Cc1c2ccc3c1nnn3CCCCCc1ccc(cc1OC(F)F)C(=O)N1CCc3ccc(cc3C1)[C@@H]2CC(=O)O [Compound 38] | 0.4 nM and 0.3 nM | 17 nM | 15 | 4.8 | 4.5 nM |  |  |  |  |
| Cc1c2ccc3c1nnn3CCCCCCc1ccc3c(c1)cc(n3CC(F)F)C(=O)N1CCc3ccc(cc3C1)[C@@H]2CC(=O)O [Compound 39] | 1 nM and 1.1 nM | 531 nM and 590 nM | 492 | 5.9 | 4.2 nM and 4.3 nM |  |  |  |  |
| O=C(O)C[C@@H]1c2cnc(nc2)OCC/C=C/Cc2c(F)c(F)c(c(F)c2F)C(=O)N2CCc3ccc1cc3C2 [Compound 40] | 46.2 nM and 53.6 nM |  | 3580 | > 1000 |  |  |  |  |  |
| Cc1c2ccc3c1nnn3CCCCCCc1ccc(cc1OC(F)(F)F)C(=O)N1CCc3ccc(cc3C1)[C@@H]2CC(=O)O [Compound 42] | 0.9 nM and 1.4 nM | 54.1 nM | 35 | 8.7 |  |  |  |  |  |
| Cc1c2n(C)c3ccc(cc13)C/C=C\CCCn1nnc3c(C)c(cnc31)[C@H](CC(=O)O)c1ccc3c(c1)CN(CC3)C2=O [Compound 43] | 0.2 nM | 43.5 nM and 37 nM | 42.9 | 4.4 | 4.3 nM and 3.7 nM |  |  |  |  |
| O=C(O)C[C@@H]1c2cnc(nc2)OCCCCCc2c(F)c(F)c(c(F)c2F)C(=O)N2CCc3ccc1cc3C2 [Compound 44] | 6.7 nM and 5.1 nM |  | 1560 | 393 |  |  |  |  |  |
| O=C(O)C[C@H]1c2cnc(nc2)OCCCCCc2c(F)c(F)c(c(F)c2F)C(=O)N2CCc3ccc1cc3C2 [Compound 45] | 229 nM and 244 nM |  | > 10000 | > 1000 |  |  |  |  |  |
| C[C@@H](C(=O)O)[C@@H]1c2ccc(nc2)OCC/C=C/Cc2ccc(cc2)C(=O)N2CCc3ccc1cc3C2 [Compound 46] | 0.4 nM and 0.3 nM | 2 nM | 3.3 | 0.7 | 0.5 nM |  |  |  |  |
| C[C@H](C(=O)O)[C@@H]1c2ccc(nc2)OCC/C=C/Cc2ccc(cc2)C(=O)N2CCc3ccc1cc3C2 [Compound 47] | 26.4 nM | 94.2 nM and 96.9 nM | 140 | 26.2 | 26 nM and 28.7 nM |  |  |  |  |
| Cc1c2ccc3c1nnn3CCCCCCc1ccc(c3cccnc13)C(=O)N1CCc3ccc(cc3C1)[C@@H]2CC(=O)O [Compound 48] | 0.1 nM and 0.2 nM | 23.9 nM | 26.1 | 12 | 9.1 nM |  |  |  |  |
| Cc1c2cnc3c1nnn3CCCCCc1cccc3c1cc(n3C)C(=O)N1CCc3ccc(cc3C1)C2CC(=O)O (stereo not drawn) [Compound 49] | 0.6 nM (2×) and 0.4 nM and 0.5 nM | 93.2 nM | 117 | 27 | 28.8 nM |  |  |  |  |
| Cc1c2ccc3c1nnn3CCCCCCc1ccc(c3ncccc13)C(=O)N1CCc3ccc(cc3C1)[C@@H]2CC(=O)O [Compound 50] | 0.2 nM and 0.3 nM | 138 nM | 89.7 | 57.3 | 47.6 nM |  |  |  |  |
| Cc1c2ccc3c1nnn3CCCCCc1ccc(c3ncccc13)C(=O)N1CCc3ccc(cc3C1)[C@@H]2CC(=O)O [Compound 51] | 0.3 nM and 0.2 nM | 125 nM | 70.6 | 44.9 | 38.6 nM |  |  |  |  |
| C[C@H](C(=O)O)[C@@H]1c2ccc(nc2)OCCCCCc2ccc(cc2)C(=O)N2CCc3ccc1cc3C2 [Compound 55] | 215 nM and 226 nM and 220 nM and 201 nM | 354 nM | 482 | 125 | 147 nM |  |  |  |  |
| Cc1cc2ncc1[C@@H]([C@H](C)C(=O)O)c1ccc3c(c1)CN(CC3)C(=O)c1ccc(cc1)C/C=C/CCO2 [Compound 58] | 10.9 nM and 8.4 nM | 35.1 nM | 26.5 | 9.7 | 8.8 nM |  |  |  |  |
| Cc1cc2ncc1[C@H]([C@@H](C)C(=O)O)c1ccc3c(c1)CN(CC3)C(=O)c1ccc(cc1)C/C=C/CCO2 [Compound 59] | 8.1 nM and 7.3 nM | 4.4 nM | 5 | 1.7 | 1.6 nM |  |  |  |  |
| Cc1cc2ncc1[C@H]([C@H](C)C(=O)O)c1ccc3c(c1)CN(CC3)C(=O)c1ccc(cc1)C/C=C/CCO2 [Compound 62] | 0.4 nM and 0.8 nM | 0.4 nM and 0.3 nM | < 0.5 | 0.2 | 0.1 nM |  |  |  |  |
| Cc1c2n(C)c3ccc(cc13)CCCCCCn1nnc3c(C)c(cnc31)[C@@H](CC(=O)O)c1ccc3c(c1)CN(CC3)C2=O [Compound 63] | 0.5 nM and 0.4 nM | 3.7 nM and 3.5 nM | 2.8 | 0.7 | 0.9 nM |  |  |  |  |
| Cc1c2oc3cc(ccc13)OCCCCCn1nnc3c(C)c(ccc31)C(CC(=O)O)c1ccc3c(c1)CN(CC3)C2=O (stereo not drawn) [Compound 401] | 6.1 nM and 6.5 nM |  |  |  |  |  | 7110 |  |  |
| Cc1c2oc3cc(ccc13)OCCCCCCn1nnc3c(C)c(ccc31)C(CC(=O)O)c1ccc3c(c1)CN(CC3)C2=O (stereo not drawn) [Compound 402] | 58.7 nM and 57.7 nM |  |  |  |  |  | > 10000 |  |  |
| O=C(O)CC1c2ccc3c(c2)CN(CC3)C(=O)c2cccc(c2)OCCCCCCn2nnc3cc1ccc32 (stereo not drawn) [Compound 403] | 146 nM and 192 nM |  |  |  |  |  | > 10000 |  |  |

Source: patent US12692274B2, “Tetrahydroisoquinoline derivatives for the treatment of red blood disorders and inflammatory diseases” (Sanofi, priority 2020, dated 2026)
